Data published in patent US20240228481A1, “NOVEL SULFONAMIDE SERIES OF QR2 INHIBITORS TO TACKLE OXIDATIVE STRESS AND COGNITIVE DECLINE” (CARMEL HAIFA UNIVERSITY ECONOMIC CORPORATION LTD., priority 2021, published 2024).
Structures can show the parent of a compound that is named as a salt.

How the values were obtained:
[1] = Pharmacokinetic study, p.o. and i.v.; type: in vivo, mouse
[2] = test system: 5×FAD mice; assay: Immunohistochemistry of CA1 in 5×FAD mice (4-HNE, amyloid β, p-Tau, Iba1); type: in vivo, mouse; details: 1 month drinking
Procedure: A week after the completion of all behavioral experiments, 5×FAD mice were anesthetized with isoflurane, and once fully anesthetized, were transcardially perfused with 4% paraformaldehyde (PFA), dilutes in […] phosphate buffered saline (PBS, Sigma-Aldrich). Brains were then briefly removed and placed in chilled, 4% PFA for 48 h, followed by immersion in 30% sucrose in 0.1 M PBS for a further 48 h. Brains were then stored at −80° C., until they were sliced into 40 μm coronal sections using a Leica CM 1950 cryostat. Slices were then washed ×3 in PBS and blocked for 1 h at RT using 10% normal donkey serum (DNS) and 0.2% triton (Sigma-Aldrich) in PBS. Antibodies, including 4-HNE (1:500, AbCam, ab48506), Iba1 (1:2,000, AbCam, ab5076), phospho-tau (1:1,000, Thermo, MN1020) and amyloid R (1:1,000, AbCam, ab201060) diluted in PBS with 10% DNS were incubated at 4° C. overnight. The next day, the slices were washed ×3 times in PBS, and secondary antibodies including donkey anti goat Alexa Fluor 568 (AbCam, ab175704), donkey anti-mouse Cy 5 (Jackson Immuno Research, 715-175-151) and donkey anti-rabbit DyLight 488 (AbCam, ab98488) all diluted 1:500 in PBS with 1% BSA, were applied to the slices at RT for 2 h. Following the incubation, the slices were washed ×3 times in PBS, mounted onto glass slides, were uniformly covered in DAPI containing Vectashield (H-1200) and coverslips were added. Images were then taken using a confocal microscope (Olympus IX83), with identical acquisition parameters across every sample per antibody. Three slices were used per mouse per antibody, with images taken of dorsal CA1 (Bregma: −1.58 mm to −2.30 mm; with each antibody having a slice from anterior, medial and posterior regions of this range) using a ×20 objective, acquiring two 800×800 pixel images over as many Z levels possible per slice (Z-stack of the whole section). Analysis of the images was done blind, using Imaris (Bitplane) software. Surface reconstruction module was used to extract the data as volumes and signal intensities. Marker volume or intensity were normalized to the corresponding brain volume. This was done in order to normalize the marker volumes to variations in Z-stack volumes and/or changes to shape and size that needed to be performed during analysis due to debris, vasculature, corpus callosum elimination, or any other obstructions or changes in shape. The normalized value was averaged for each triplicate.
Following the completion of behavioral experiments, the inventors wished to assess brain pathologies associated with AD present in the 5×FAD mice used. Therefore, 5 days following the completion of the last behavioral experiment, and 1 month following the start of YB-537 consumption, all the mice were sacrificed and coronal sections of their fixed brains were made and used for immunohistochemistry. Since the CA1 region of the hippocampus is affected early on in the pathogenesis of AD, and this brain region is involved in the behavioral paradigms used here, the inventors acquired images of CA1. This was done with an Olympus IX83 confocal microscope using the same settings, antibodies and exposures (all slices and samples were prepared by the same experimenter and all images taken by the same experimenter) in all mice and a separate blind experimenter, unaware of the experimental conditions or details, measured and analyzed the signal detected using Imaris (Bitplane) software (see methods). For each mouse, three coronal sections were used per antibody. In each section, the same region of CA1 was acquired, using the same image frame size and resolution, at all possible depths of the section (Z-stack of the whole section), to allow measurement of the fluorescent antibody marker volume, which was normalized to the brain volume from which it was taken. First, the inventors measured oxidative stress, as indicated by lipid peroxidation product, 4-Hydroxynonenal (4-HNE, antibody: AbCam, ab48506). […]

[3] = test system: HCT116 QR2Δ cells; assay: H2DCFDA detection of cellular ROS in HCT116 QR2Δ cells; type: cell-based, human; details: 20 μM, 3 h
Text: Additional details of the knockout procedure and corresponding figures have been previously published. Disruption of the NQO2 gene at positions 46 and 108 within exon 4 was done using CRISPR/Cas9 dual nickase (plasmid pSpCas9n(BB)-2A-Puro (PX462), Addgene #48141). The target sequence was selected using a CRISPR design tool (http://crispr.mit.edu/), which identified the guide sequences with the least off-targets. Vectors NQ024_46 and NQ024_108 were produced by cloning oligonucleotides corresponding to guide RNA (sgRNA) into PX462 as previously described. The vectors were then transfected into HCT 116 cells (at 70% confluence) using Lipofectamine 2000 (Life Technologies), and 24 h later 0.7 μg/mL puromycin (Alfa Aesar) was added to the media for 72 h. Cells that survived were then collected and serially diluted into 96 well plates, with puromycin supplemented media, to enable selection and expansion of plasmid containing colonies two weeks later.
The cells were harvested and resuspended in 1% clear medium (DMEM—with no phenol red, supplemented with 1% FBS, 1% L-Glutamine and 1% Penicillin-Streptomycin). […] The plate was then incubated in the dark at 37° C. for 3 h, before reading in a Tecan M200 Pro florescence microplate reader, using wavelengths Ex/Em=485 nm/535 nm.

| SMILES | half-life ([1]; C57BL/6J, mouse, in vivo, po, p.o. 50 mg/kg, male mice, read-out: clearance rate half-life) [h] | brain clearance half-life ([1]; acute oral dosing, mouse brain) [h] | peak concentration in brain ([1]; male, C57BL/6J, mouse, in vivo, po) [ng/g] | bioavailability ([1]; p.o. 50 mg/kg, male mice) [%] | brain clearance half-life ([1]; p.o., male mouse brain) [h] | time of peak in brain following p.o. administration ([1]; p.o., male mouse brain) [h] | 4-HNE volume normalized to μm^3 of brain, CA1 ([2]; 5×FAD females) | 4-HNE volume normalized to μm^3 of brain, CA1 ([2]; 5×FAD males) | Amyloid β volume normalized to μm^3 of brain, CA1 ([2]; 5×FAD males) | Volume of Iba1 normalized to μm^3 of brain, CA1 ([2]; 5×FAD males) | Volume of p-Tau normalized to μm^3 of brain, CA1 ([2]; 5×FAD males) | sum of the intensity of Iba1 positive signal normalized to μm^3 of brain, CA1 ([2]; 5×FAD males) | Volume of Iba1 normalized to μm^3 of brain, CA1 ([2]; 5×FAD total population) | sum of the intensity of Iba1 positive signal normalized to μm^3 of brain, CA1 ([2]; 5×FAD total population) | baseline ROS levels [3] [AU] |
| --- | --- | --- | --- | --- | --- | --- | --- | --- | --- | --- | --- | --- | --- | --- | --- |
| Cc1ccc(-c2cn3cccc(C)c3n2)cc1S(=O)(=O)N1CCNCC1 [YB-537, 8-methyl-2-(4-methyl-3-(piperazin-1-ylsulfonyl)phenyl)imidazo[1,2-a]pyridine hydrochloride] | 1 | ~1 | 203 | 82 | 1.06 | ~1 | 0.053±0.005 | 0.053±0.005 | 0.038±0.004 | 0.038±0.003 | 0.064±0.006 | 74.09±6.198 | 0.032±0.002 | 63.57±5.251 |  |
| Cc1cccn2cc(-c3cccc(S(=O)(=O)N4CCC(C)CC4)c3)nc12 [YB-800] |  |  |  |  |  |  |  |  |  |  |  |  |  |  | −0.009±0.049 |
